Reference: patent publication EP3046573B1, “AMYLIN ANALOGUES” (Zealand Pharma A/S, priority 2013, dated 2015)
Read-outs that look alike come from different tables or passages of the source. Numbered stars: 1 amine (or outer) side, 2 acyl side, 3 side chain; on linkers, the order of the positions; unused ones are H or OH. Bridge positions count the residues as written; N and C are the ends. Square brackets hold non-standard residues; d marks the D form. Peptide text beside a SMILES is read from it. * marks the point of attachment. C20 diacid = O=C(O)CCCCCCCCCCCCCCCCCCC(=O)*; γGlu = O=C(O)[C@H](CCC(=O)[*:2])N[*:1]; Hyp = O=C(O)[C@@H]1C[C@@H](O)CN1; NMeI = CC[C@H](C)[C@H](NC)C(=O)O; Aze = O=C(O)[C@@H]1CCN1; Sar = CNCC(=O)O

Assays:
[1] = biological target: T1, human amylin receptor 3 (hAMYR3) consisting of hCTR2 co-expressed with human Receptor Activity Modifying Protein 3 (hRAMP3) (Homo sapiens, UniProt O60896+P30988); assay: hAMYR3 assay: induction of cAMP (AlphaScreen cAMP Assay kit) in COS7 cells expressing hAMYR3; type: cell-based
T1 construct: expressed in transfected cells
T1 sequence (P30988 25-474): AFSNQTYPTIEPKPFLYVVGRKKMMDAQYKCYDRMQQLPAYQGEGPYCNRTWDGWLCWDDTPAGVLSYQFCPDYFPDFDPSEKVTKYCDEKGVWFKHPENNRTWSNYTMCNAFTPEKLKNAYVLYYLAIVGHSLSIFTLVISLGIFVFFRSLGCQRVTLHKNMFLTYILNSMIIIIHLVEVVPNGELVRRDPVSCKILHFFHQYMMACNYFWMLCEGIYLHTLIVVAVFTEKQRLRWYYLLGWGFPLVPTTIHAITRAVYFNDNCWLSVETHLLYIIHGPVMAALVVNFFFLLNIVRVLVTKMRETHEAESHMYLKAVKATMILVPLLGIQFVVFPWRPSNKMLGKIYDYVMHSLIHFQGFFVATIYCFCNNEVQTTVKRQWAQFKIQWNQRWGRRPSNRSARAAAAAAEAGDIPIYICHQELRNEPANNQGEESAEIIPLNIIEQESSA
T1 sequence (O60896 24-148 partner): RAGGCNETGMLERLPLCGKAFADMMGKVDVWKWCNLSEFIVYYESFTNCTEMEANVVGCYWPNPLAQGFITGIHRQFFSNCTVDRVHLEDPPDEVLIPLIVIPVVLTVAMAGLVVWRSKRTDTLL
Method in brief: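 Stable COS7 clone co-expressing hCTR2 and hRAMP3, stimulated 15 min at 37° C with increasing peptide in Tyrode buffer pH 7.4 with 100 µM IBMX and 0.1% casein. cAMP measured by AlphaScreen after lysis; EC50 and % efficacy versus pramlintide from 4PL fit.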

[2] = Assessment of physical stability: fibril formation detected with Thioflavin T (ThT), lag-time; type: physicochemical; conditions: 1 mg/ml peptide, 40 µM ThT, FND = Fibrillation not detected; for Fibrillation lag time (hours) pH 4.0 (Ac): 50 mM acetate buffer pH 4.0, 96 hours at 40°C; for Fibrillation lag time (hours) pH 7.0 (His): 50 mM histidine buffer pH 7.0, 96 hours at 40°C; for Fibrillation lag time (hours) pH 7.0 (Ph): 50 mM phosphate buffer pH 7.0, 96 hours at 40°C
Method in brief: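 Test peptide at 1 mg/ml with 40 µM ThT in 50 mM phosphate (pH 7.0), 50 mM histidine (pH 7.0) or 50 mM acetate (pH 4.0), in triplicate, 40° C. for 96 h. Fluorescence read every 10 min after 300 s agitation. Lag-time (h) taken as intersection of linear fits to initial stable and growth phases.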

[3] = Solubility assessment (turbidity absorbance at 325 nm); type: physicochemical; conditions: stock 2 mg/ml diluted 1:1, ambient temperature (typically 25°C), n=1; for Solubility, Acetate buffer pH 4: 100 mM acetate buffer pH 4.0; for Solubility, Acetate buffer pH 5: 100 mM acetate buffer pH 5.0; for Solubility, Histidine buffer pH 6: 100 mM histidine buffer pH 6.0; for Solubility, Histidine buffer pH 7: 100 mM histidine buffer pH 7.0; for Solubility, Phosphate buffer pH 6: 100 mM phosphate buffer pH 6.0; for Solubility, Phosphate buffer pH 7: 100 mM phosphate buffer pH 7.0; for Solubility, Phosphate buffer pH 7.5: 100 mM phosphate buffer pH7.5
Method in brief: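 Stock 2 mg/ml peptide, H2O/HCl pH 2.5; 1:1 into 100 mM buffers: acetate pH 4.0/5.0, His pH 6.0/7.0, phosphate pH 6.0/7.0/7.5. A280 + A325, ~25°C, n=1. Soluble ≥ 1 mg/ml if A325 ≤ 0.02.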

| EC50 ([1]; cAMP induction in COS7 cells expressing hAMYR3, average of a minimum of 3 determinations, read-out: hAMY R3 EC50) [pM] | Structure (SMILES) | Fibrillation lag time (hours) pH 4.0 (Ac) [2] | Fibrillation lag time (hours) pH 7.0 (His) [2] | Fibrillation lag time (hours) pH 7.0 (Ph) [2] | Solubility, Acetate buffer pH 4 [3] | Solubility, Acetate buffer pH 5 [3] | Solubility, Histidine buffer pH 6 [3] | Solubility, Histidine buffer pH 7 [3] | Solubility, Phosphate buffer pH 6 [3] | Solubility, Phosphate buffer pH 7 [3] | Solubility, Phosphate buffer pH 7.5 [3] | EC50 [1] [pM] |
| --- | --- | --- | --- | --- | --- | --- | --- | --- | --- | --- | --- | --- |
| 120 | CC[C@H](C)[C@@H](C(=O)N[C@@H](CC(C)C)C(=O)N[C@@H](CO)C(=O)N[C@@H](CO)C(=O)N[C@H](C(=O)N[C@@H](CCC(=O)O)C(=O)N[C@H](C(=O)NCC(=O)N[C@@H](CO)C(=O)N[C@@H](CCC(=O)O)C(=O)N[C@H](C(=O)N1CCC[C@H]1C(N)=O)[C@@H](C)O)C(C)C)[C@@H](C)O)N(C)C(=O)[C@H](C)NC(=O)CN(C)C(=O)[C@H](Cc1ccccc1)NC(=O)[C@H](CO)NC(=O)[C@H](CO)NC(=O)[C@H](CCCNC(=N)N)NC(=O)[C@H](Cc1c[nH]cn1)NC(=O)[C@H](CC(C)C)NC(=O)[C@H](Cc1ccccc1)NC(=O)[C@H](CCC(=O)O)NC(=O)[C@H](C)NC(=O)[C@H](CC(C)C)NC(=O)[C@H](CCCNC(=N)N)NC(=O)[C@H](CCC(N)=O)NC(=O)[C@@H](NC(=O)[C@H](C)NC(=O)[C@@H]1CSSC[C@H](NC(=O)[C@H](CCCNC(=N)N)NC(=O)CC[C@H](NC(=O)CCCCCCCCCCCCCCCCCCC(=O)O)C(=O)O)C(=O)N[C@@H](CC(N)=O)C(=O)N[C@@H]([C@@H](C)O)C(=O)N[C@@H](C)C(=O)N[C@@H]([C@@H](C)O)C(=O)N1)[C@@H](C)O [Compound 82, [19CD]-isoGlu-RC()NTATC()ATQRLAEFLHRSSF-Gly(Me)-A-Ile(Me)-LSSTEVGSETP-NH2] ({C20 diacid-γGlu}-RCNTATCATQRLAEFLHRSSF[Sar]A[NMeI]LSSTEVGSETP-NH2; disulfide 2-7) | FND | FND | FND | SS (SS indicates solubility ≥ 1mg/ml) | SS (SS indicates solubility ≥ 1mg/ml) | SS (SS indicates solubility ≥ 1mg/ml) | SS (SS indicates solubility ≥ 1mg/ml) | SS (SS indicates solubility ≥ 1mg/ml) | SS (SS indicates solubility ≥ 1mg/ml) | SS (SS indicates solubility ≥ 1mg/ml) | – |
| – | CC[C@H](C)[C@@H](C(=O)N[C@@H](CC(C)C)C(=O)N[C@@H](CO)C(=O)N[C@@H](CO)C(=O)N[C@H](C(=O)N[C@@H](CC(N)=O)C(=O)N[C@H](C(=O)NCC(=O)N[C@@H](CO)C(=O)N[C@@H](CC(N)=O)C(=O)N[C@H](C(=O)N1C[C@H](O)C[C@H]1C(N)=O)[C@@H](C)O)C(C)C)[C@@H](C)O)N(C)C(=O)[C@H](C)NC(=O)CN(C)C(=O)[C@H](Cc1ccccc1)NC(=O)[C@H](CC(N)=O)NC(=O)[C@H](CC(N)=O)NC(=O)[C@H](CO)NC(=O)[C@H](CO)NC(=O)[C@H](CCCNC(=N)N)NC(=O)[C@H](Cc1c[nH]cn1)NC(=O)[C@H](CC(C)C)NC(=O)[C@H](Cc1ccccc1)NC(=O)[C@H](CCC(=O)O)NC(=O)[C@H](C)NC(=O)[C@H](CC(C)C)NC(=O)[C@H](CCCNC(=N)N)NC(=O)[C@H](CCC(N)=O)NC(=O)[C@@H](NC(=O)[C@H](C)NC(=O)[C@@H]1CSSC[C@H](NC(=O)[C@H](CCCNC(=N)N)NC(=O)CC[C@H](NC(=O)CCCCCCCCCCCCCCCCCCC(=O)O)C(=O)O)C(=O)N[C@@H](CC(N)=O)C(=O)N[C@@H]([C@@H](C)O)C(=O)N[C@@H](C)C(=O)N[C@@H]([C@@H](C)O)C(=O)N1)[C@@H](C)O [Compound 105, [19CD]-isoGlu-RC()NTATC()ATQRLAEFLHRSSNNF-Gly(Me)-A-Ile(Me)-LSSTNVGSNT-Hyp-NH2] ({C20 diacid-γGlu}-RCNTATCATQRLAEFLHRSSNNF[Sar]A[NMeI]LSSTNVGSNT[Hyp]-NH2; disulfide 2-7) | FND | FND | FND | SS (SS indicates solubility ≥ 1mg/ml) | SS (SS indicates solubility ≥ 1mg/ml) | SS (SS indicates solubility ≥ 1mg/ml) | SS (SS indicates solubility ≥ 1mg/ml) | SS (SS indicates solubility ≥ 1mg/ml) | SS (SS indicates solubility ≥ 1mg/ml) | SS (SS indicates solubility ≥ 1mg/ml) | 92 |
| – | CC[C@H](C)[C@@H](C(=O)N[C@@H](CC(C)C)C(=O)N[C@@H](CO)C(=O)N[C@@H](CO)C(=O)N[C@H](C(=O)N[C@@H](CC(N)=O)C(=O)N[C@H](C(=O)NCC(=O)N[C@@H](CO)C(=O)N[C@@H](CC(N)=O)C(=O)N[C@H](C(=O)N1CC[C@H]1C(N)=O)[C@@H](C)O)C(C)C)[C@@H](C)O)N(C)C(=O)[C@H](C)NC(=O)CN(C)C(=O)[C@H](Cc1ccccc1)NC(=O)[C@H](CC(N)=O)NC(=O)[C@H](CC(N)=O)NC(=O)[C@H](CO)NC(=O)[C@H](CO)NC(=O)[C@H](CCCNC(=N)N)NC(=O)[C@H](Cc1c[nH]cn1)NC(=O)[C@H](CC(C)C)NC(=O)[C@H](Cc1ccccc1)NC(=O)[C@H](CCC(=O)O)NC(=O)[C@H](C)NC(=O)[C@H](CC(C)C)NC(=O)[C@H](CCCNC(=N)N)NC(=O)[C@H](CCC(N)=O)NC(=O)[C@@H](NC(=O)[C@H](C)NC(=O)[C@@H]1CSSC[C@H](NC(=O)[C@H](CCCNC(=N)N)NC(=O)CC[C@H](NC(=O)CCCCCCCCCCCCCCCCCCC(=O)O)C(=O)O)C(=O)N[C@@H](CC(N)=O)C(=O)N[C@@H]([C@@H](C)O)C(=O)N[C@@H](C)C(=O)N[C@@H]([C@@H](C)O)C(=O)N1)[C@@H](C)O [Compound 107, [19CD]-isoGlu-RC()NTATC()ATQRLAEFLHRSSNNF-Gly(Me)-A-Ile(Me)-LSSTNVGSNT-Aze-NH2] ({C20 diacid-γGlu}-RCNTATCATQRLAEFLHRSSNNF[Sar]A[NMeI]LSSTNVGSNT[Aze]-NH2; disulfide 2-7) | FND | FND | 16 hours | SS (SS indicates solubility ≥ 1mg/ml) | SS (SS indicates solubility ≥ 1mg/ml) | SS (SS indicates solubility ≥ 1mg/ml) | SS (SS indicates solubility ≥ 1mg/ml) | SS (SS indicates solubility ≥ 1mg/ml) | SS (SS indicates solubility ≥ 1mg/ml) | SS (SS indicates solubility ≥ 1mg/ml) | 520 |
